Source: ChEMBL document CHEMBL2069231, “Combining pharmacophore, docking and substructure search approaches to identify and optimize novel B-RafV600E inhibitors” (Bioorg Med Chem Lett, 2012)

What was measured:
[1] = molecular target: Serine/threonine-protein kinase B-raf (Homo sapiens, UniProt P15056, V600E); assay: Inhibition of BRAF V600E mutant by ELISA
[2] = system: Serine/threonine-protein kinase B-raf (Homo sapiens), P15056 [V600E]; assay: Inhibition of BRAF V600E mutant at 10 uM by ELISA
Chain of Serine/threonine-protein kinase B-raf (Homo sapiens), P15056 [V600E] (P15056 whole entry V600E): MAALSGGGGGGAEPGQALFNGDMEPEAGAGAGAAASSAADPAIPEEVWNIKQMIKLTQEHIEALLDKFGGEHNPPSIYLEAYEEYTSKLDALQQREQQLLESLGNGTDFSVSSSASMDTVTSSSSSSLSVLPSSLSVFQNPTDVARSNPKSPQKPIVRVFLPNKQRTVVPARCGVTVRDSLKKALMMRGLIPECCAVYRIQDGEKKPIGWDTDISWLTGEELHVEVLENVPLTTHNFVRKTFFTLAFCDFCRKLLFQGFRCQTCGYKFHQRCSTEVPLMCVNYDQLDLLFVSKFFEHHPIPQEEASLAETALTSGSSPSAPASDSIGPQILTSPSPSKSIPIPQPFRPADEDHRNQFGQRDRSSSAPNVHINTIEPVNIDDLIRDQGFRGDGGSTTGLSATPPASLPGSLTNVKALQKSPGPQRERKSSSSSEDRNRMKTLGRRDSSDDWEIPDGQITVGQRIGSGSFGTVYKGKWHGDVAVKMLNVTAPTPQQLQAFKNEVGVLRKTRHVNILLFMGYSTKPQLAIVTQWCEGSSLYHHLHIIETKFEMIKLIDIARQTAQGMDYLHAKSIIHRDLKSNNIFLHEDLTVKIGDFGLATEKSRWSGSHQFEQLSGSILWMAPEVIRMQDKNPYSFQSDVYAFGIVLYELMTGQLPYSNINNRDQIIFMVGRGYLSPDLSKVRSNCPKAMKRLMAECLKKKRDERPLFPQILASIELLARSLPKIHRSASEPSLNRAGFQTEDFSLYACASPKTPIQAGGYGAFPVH

[3] = system: Serine/threonine-protein kinase B-raf (Homo sapiens), P15056 [V600E]; assay: Inhibition of BRAF V600E mutant at 1 uM by ELISA

Chain of Serine/threonine-protein kinase B-raf (P15056 2-766 V600E limits assumed): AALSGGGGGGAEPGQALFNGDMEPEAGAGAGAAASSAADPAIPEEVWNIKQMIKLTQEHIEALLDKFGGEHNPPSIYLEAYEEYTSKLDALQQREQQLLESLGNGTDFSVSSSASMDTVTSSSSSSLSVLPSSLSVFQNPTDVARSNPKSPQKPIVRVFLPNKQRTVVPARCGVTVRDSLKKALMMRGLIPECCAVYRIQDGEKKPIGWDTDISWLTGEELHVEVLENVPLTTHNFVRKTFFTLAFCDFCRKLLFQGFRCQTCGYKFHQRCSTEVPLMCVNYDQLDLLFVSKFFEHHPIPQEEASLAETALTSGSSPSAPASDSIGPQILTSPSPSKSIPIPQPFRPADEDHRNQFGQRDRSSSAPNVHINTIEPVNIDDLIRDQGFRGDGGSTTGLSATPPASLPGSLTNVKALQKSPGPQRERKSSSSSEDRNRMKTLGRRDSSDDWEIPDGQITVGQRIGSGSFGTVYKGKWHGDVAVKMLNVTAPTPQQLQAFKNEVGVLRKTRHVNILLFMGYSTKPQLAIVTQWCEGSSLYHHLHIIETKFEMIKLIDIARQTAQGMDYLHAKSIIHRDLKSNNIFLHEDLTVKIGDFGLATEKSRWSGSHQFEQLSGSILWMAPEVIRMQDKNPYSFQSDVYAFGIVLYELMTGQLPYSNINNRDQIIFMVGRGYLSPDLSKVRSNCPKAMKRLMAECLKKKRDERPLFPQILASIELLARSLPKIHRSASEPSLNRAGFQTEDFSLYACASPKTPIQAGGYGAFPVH

Structure (SMILES) | IC50 [1] [nM] | inhibition [2] [%] | inhibition [3] [%]
Cc1ccc(N2C(=O)/C(=C\c3ccc(CN(CCC#N)S(C)(=O)=O)o3)C(=O)NC2=S)cc1 | 970 | 99 | 48
CCOc1ccc(C=C2C(=O)NC(=S)NC2=O)cc1Cl | – | 71 | 12
CC(C)COC(=O)c1ccc(-c2ccc(C=C3C(=O)NC(=S)NC3=O)o2)cc1 | – | 37 | 31
Cc1ccc(N2C(=O)/C(=C\c3ccc(-c4cccc(C(=O)O)c4)o3)C(=O)NC2=S)cc1 | 4020 | 98 | 33
Cc1ccc(Cl)cc1-c1ccc(C=C2C(=O)NC(=S)NC2=O)o1 | – | 75 | 54
Cc1ccc(N2C(=O)/C(=C\c3ccc(-c4ccc(Cl)c(C(=O)O)c4)o3)C(=O)NC2=S)cc1 | – | 71 | 5
COc1cccc(N2C(=O)/C(=C\c3ccc(CN(CCC#N)S(C)(=O)=O)o3)C(=O)NC2=S)c1 | 1840 | 74 | 32
COC(=O)c1cc(Br)ccc1-c1ccc(C=C2C(=O)NC(=S)NC2=O)o1 | – | 86 | 61
Cc1ccc(N2C(=O)/C(=C\c3ccc(-c4ccc(C(=O)O)cc4)o3)C(=O)NC2=S)cc1 | 1600 | 97 | 35
CS(=O)(=O)N(CCC#N)Cc1ccc(/C=C2/C(=O)NC(=S)N(c3ccc(Br)cc3)C2=O)o1 | 440 | 96 | 88
Cc1cccc(C)c1OCCOc1ccc(C=C2C(=O)NC(=S)NC2=O)cc1 | – | 95 | 42
Cc1c(Cl)cccc1N1C(=O)/C(=C\c2ccc(-c3ccc(C(=O)O)cc3)o2)C(=O)NC1=S | 2490 | 100 | 38
O=C1NC(=S)NC(=O)C1=Cc1ccc(-c2ccc([N+](=O)[O-])cc2)o1 | 730 | 91 | 59
CCCS(=O)(=O)Nc1ccc(F)c(C(=O)c2c[nH]c3ncc(-c4ccc(Cl)cc4)cc23)c1F | – | 92 | 72
COc1ccc(C=C2C(=O)NC(=S)NC2=O)cc1OCc1ccc(Br)cc1 | – | 87 | 12
O=C1NC(=S)NC(=O)C1=Cc1ccc(-c2cccc([N+](=O)[O-])c2)o1 | 830 | 85 | 48
COc1ccc(C=C2C(=O)NC(=S)NC2=O)cc1OC(=O)c1cccc(Cl)c1 | – | 88 | 9
CCOc1cc(C=C2C(=O)NC(=S)NC2=O)ccc1O | – | 68 | 15
COc1cc(C=C2C(=O)NC(=S)NC2=O)ccc1OC(F)F | – | 17 | 14
O=C1NC(=S)N(c2ccc(Br)cc2)C(=O)/C1=C\c1ccc(-c2ccc(C(=O)O)cc2)o1 | 2230 | 97 | 38
CCOc1cc(C=C2C(=O)NC(=S)NC2=O)ccc1OCC(=O)Nc1cccc(C)c1 | – | 81 | 23
COC(=O)c1ccccc1-c1ccc(/C=C2/C(=O)NC(=S)N(c3ccc(C)cc3)C2=O)o1 | 1650 | 88 | 37
COc1ccc(C=C2C(=O)NC(=S)NC2=O)cc1OC(=O)c1ccccc1 | 4010 | 77 | 46

Structure (SMILES) | IC50 [1] [nM] | inhibition [2] [%] | inhibition [3] [%]
O=C1NC(=S)N(c2ccc(Br)cc2)C(=O)/C1=C\c1ccc(-c2cccc(C(=O)O)c2)o1 | 1800 | 100 | 43
O=C1NC(=S)N(c2ccc(Br)cc2)C(=O)/C1=C\c1ccc(-c2ccc(C(=O)O)c(Cl)c2)o1 | 4750 | 89 | 28
O=C1NC(=S)N(c2ccc(Br)cc2)C(=O)/C1=C\c1ccc(-c2ccccc2C(=O)O)o1 | 3450 | 100 | 32
COc1cc(C=C2C(=O)NC(=S)NC2=O)ccc1OCCO | – | 34 | < 5
N#Cc1ccccc1-c1ccc(C=C2C(=O)NC(=S)NC2=O)o1 | 740 | 93 | 60
O=C1NC(=S)NC(=O)C1=Cc1ccc(OCC(=O)N2CCCC2)cc1 | – | 52 | 9
CCN(C)c1ccc(-c2ccc(C=C3C(=O)NC(=S)NC3=O)cc2)cc1 | – | < 5 | < 5
O=C1NC(=S)N(c2cccc(Cl)c2Cl)C(=O)/C1=C\c1ccc(-c2ccc(C(=O)O)cc2)o1 | 1540 | 100 | 46
COc1cc(C=C2C(=O)NC(=S)NC2=O)ccc1OC(=O)c1cccc(F)c1 | – | 28 | < 5
CCOC(=O)c1ccccc1-c1ccc(/C=C2/C(=O)NC(=S)N(c3ccc(C)cc3)C2=O)o1 | 1020 | 88 | 56
Cc1ccc(N2C(=O)/C(=C\c3ccc(-c4ccc(F)cc4)o3)C(=O)NC2=S)cc1 | 4110 | 74 | 13
Cc1ccc(N2C(=O)/C(=C\c3ccc(-c4ccc(C(=O)O)c(Cl)c4)o3)C(=O)NC2=S)cc1 | 3240 | 99 | 28
CCOc1ccc(N2C(=O)/C(=C\c3ccc(CN(CCC#N)S(C)(=O)=O)o3)C(=O)NC2=S)cc1 | 1140 | 91 | 43
CS(=O)(=O)N(CCC#N)Cc1ccc(/C=C2/C(=O)NC(=S)N(c3ccc(Cl)c(Cl)c3)C2=O)o1 | 820 | 97 | 60
Cc1ccc([N+](=O)[O-])cc1-c1ccc(C=C2C(=O)NC(=S)NC2=O)o1 | – | 57 | 51
Cc1ccc(N2C(=O)/C(=C\c3ccc(CN(CCC#N)S(C)(=O)=O)o3)C(=O)NC2=S)cc1Cl | 310 | 99 | 68
O=C1NC(=S)NC(=O)C1=Cc1ccc(Oc2ccc([N+](=O)[O-])cn2)cc1 | – | 41 | < 5
Cc1cccc(N2C(=O)/C(=C\c3ccc(CN(CCC#N)S(C)(=O)=O)o3)C(=O)NC2=S)c1 | 500 | 84 | 55
O=C1NC(=S)NC(=O)C1=Cc1cccc(OC(=O)c2cccc(F)c2)c1 | – | 19 | 17
O=C1NC(=S)NC(=O)C1=Cc1ccc(OCc2ccccc2)c(Cl)c1 | – | 91 | 31
COc1ccc(C=C2C(=O)NC(=S)NC2=O)cc1OC(=O)c1ccc(C)cc1 | – | 38 | < 5
O=C1NC(=S)NC(=O)C1=Cc1ccc(-c2ccccc2[N+](=O)[O-])o1 | 670 | 93 | 55
COc1cc(C=C2C(=O)NC(=S)NC2=O)ccc1OCCC(C)C | – | 81 | 21
